# Results: US20220323406A1, “METHODS AND COMPOSITIONS FOR DIFFERENTIATING STEM CELLS” (Massachusetts Institute of Technology, priority 2019, published 2022)
# How the values were obtained:
# ENR+CD organoids = test: Primary screen: ATP (CellTiter-Glo 3D, CTG) cell number/viability, 2.5-D 384-well ENR+CD organoids; settings: primary screen; for Z.CTG: standard z score;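 as to all read-outs here: compounds given at plating and again on day 3 over a 6-day differentiation from ENR+CV stem-cell-enriched precursors, ATP measured on day 6, plate median as control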
# [1] = tested on: ENR+CD organoids (ISC to Paneth cell differentiation); test: Primary screen: CCh-stimulated lysozyme secretion LYZ.S, 2.5-D 384-well ENR+CD organoid differentiation; format: cell-based, mouse; settings: primary screen
# Description: (§1) High-throughput screening.
# [2] = tested on: ENR+CD organoids (ISC to Paneth cell differentiation); test: Primary screen: basal (non-stimulated) lysozyme secretion LYZ.NS, 2.5-D 384-well ENR+CD organoid differentiation; format: cell-based, mouse; settings: primary screen; for Z.LYZ.NS: standard z score
# Description: as §1
# [3] = dose 0.08 uM, FC vs plate median
# [4] = dose 0.40 uM, FC vs plate median
# [5] = dose 2.00 uM, FC vs plate median
# [6] = dose 10.00 uM, FC vs plate median
smiles,measurement,setting,value
COCC[n+]1c2c(n(Cc3cnccn3)c1C)C(=O)c1ccccc1C2=O.[Br-] [YM155 (Sepantronium Bromide)],Dose.FC.CTG,ENR+CD organoids; dose 0.08 uM,0.222 log2 fold change
same,Z.CTG (standard z score),ENR+CD organoids; dose 0.08 uM,0.531
same,Dose.FC.CTG,ENR+CD organoids; dose 0.40 uM,−0.083 log2 fold change
same,Z.CTG (standard z score),ENR+CD organoids; dose 0.40 uM,−0.198
same,Dose.FC.CTG,ENR+CD organoids; dose 2.00 uM,−0.460 log2 fold change
same,Z.CTG (standard z score),ENR+CD organoids; dose 2.00 uM,−1.100
same,Dose.FC.CTG,ENR+CD organoids; dose 10.00 uM,−0.970 log2 fold change
same,Z.CTG (standard z score),ENR+CD organoids; dose 10.00 uM,−2.316
same,Dose.FC.LYZ.S,[1]; dose 0.08 uM,0.172 log2 fold change
same,Dose.FC.LYZ.S,[1]; dose 0.40 uM,−0.039 log2 fold change
same,Dose.FC.LYZ.S,[1]; dose 2.00 uM,−0.137 log2 fold change
same,Dose.FC.LYZ.S,[1]; dose 10.00 uM,−0.210 log2 fold change
same,Dose.FC.LYZ.NS,[2]; dose 0.08 uM,0.114 log2 fold change
same,Z.LYZ.NS (standard z score),[2]; dose 0.08 uM,0.995
same,Dose.FC.LYZ.NS,[2]; dose 0.40 uM,−0.031 log2 fold change
same,Z.LYZ.NS (standard z score),[2]; dose 0.40 uM,−0.266
same,Dose.FC.LYZ.NS,[2]; dose 2.00 uM,−0.082 log2 fold change
same,Z.LYZ.NS (standard z score),[2]; dose 2.00 uM,−0.714
same,Dose.FC.LYZ.NS,[2]; dose 10.00 uM,−0.096 log2 fold change
same,Z.LYZ.NS (standard z score),[2]; dose 10.00 uM,−0.839
O=C(NOC[C@H](O)CO)c1ccc(F)c(F)c1Nc1ccc(I)cc1F [PD0325901],Dose.FC.CTG,ENR+CD organoids; [3],−0.502 log2 fold change
same,Dose.FC.CTG,ENR+CD organoids; [4],−1.155 log2 fold change
same,Dose.FC.CTG,ENR+CD organoids; [5],−0.867 log2 fold change
same,Dose.FC.CTG,ENR+CD organoids; [6],−0.963 log2 fold change
same,Dose.FC.LYZ.S,[1]; [3],−0.212 log2 fold change
same,Dose.FC.LYZ.S,[1]; [4],−0.219 log2 fold change
same,Dose.FC.LYZ.S,[1]; [5],−0.227 log2 fold change
same,Dose.FC.LYZ.S,[1]; [6],−0.269 log2 fold change
same,Z.LYZ.NS,[2]; dose 0.08 uM,−1.046
same,Z.LYZ.NS,[2]; dose 0.40 uM,−1.064
same,Z.LYZ.NS,[2]; dose 2.00 uM,−1.215
same,Z.LYZ.NS,[2]; dose 10.00 uM,−1.625
same,Dose.FC.LYZ.NS,[2]; [3],−0.120 log2 fold change
same,Dose.FC.LYZ.NS,[2]; [4],−0.122 log2 fold change
same,Dose.FC.LYZ.NS,[2]; [5],−0.139 log2 fold change
same,Dose.FC.LYZ.NS,[2]; [6],−0.187 log2 fold change
Nc1nc(OCc2cc(Br)cs2)c2[nH]cnc2n1 [Lomeguatrib],Dose.FC.CTG (log2 fold change),ENR+CD organoids; dose 0.08 uM,−0.426
same,Dose.FC.CTG (log2 fold change),ENR+CD organoids; dose 0.40 uM,−0.309
same,Dose.FC.CTG (log2 fold change),ENR+CD organoids; dose 2.00 uM,0.075
same,Dose.FC.CTG (log2 fold change),ENR+CD organoids; dose 10.00 uM,−0.080
same,Dose.FC.LYZ.S (log2 fold change),[1]; dose 0.08 uM,−0.082
same,Dose.FC.LYZ.S (log2 fold change),[1]; dose 0.40 uM,−0.022
same,Dose.FC.LYZ.S (log2 fold change),[1]; dose 2.00 uM,−0.055
same,Dose.FC.LYZ.S (log2 fold change),[1]; dose 10.00 uM,−0.138
same,Dose.FC.LYZ.NS (log2 fold change),[2]; dose 0.08 uM,−0.050
same,Z.LYZ.NS (standard z score),[2]; dose 0.08 uM,−0.437
same,Dose.FC.LYZ.NS (log2 fold change),[2]; dose 0.40 uM,−0.019
same,Z.LYZ.NS (standard z score),[2]; dose 0.40 uM,−0.161
same,Dose.FC.LYZ.NS (log2 fold change),[2]; dose 2.00 uM,−0.022
same,Z.LYZ.NS (standard z score),[2]; dose 2.00 uM,−0.193
same,Dose.FC.LYZ.NS (log2 fold change),[2]; dose 10.00 uM,−0.104
same,Z.LYZ.NS (standard z score),[2]; dose 10.00 uM,−0.908
Nc1cccc(-c2cc3c(Oc4cccc(O)c4)ncnc3[nH]2)c1 [TWS119],Dose.FC.CTG,ENR+CD organoids; dose 0.08 uM,0.328 log2 fold change
same,Z.CTG (standard z score),ENR+CD organoids; dose 0.08 uM,0.784
same,Dose.FC.CTG,ENR+CD organoids; dose 0.40 uM,0.333 log2 fold change
same,Z.CTG (standard z score),ENR+CD organoids; dose 0.40 uM,0.796
same,Dose.FC.CTG,ENR+CD organoids; dose 2.00 uM,0.071 log2 fold change
same,Z.CTG (standard z score),ENR+CD organoids; dose 2.00 uM,0.169
same,Dose.FC.CTG,ENR+CD organoids; dose 10.00 uM,−1.200 log2 fold change
same,Z.CTG (standard z score),ENR+CD organoids; dose 10.00 uM,−2.866
same,Dose.FC.LYZ.S,[1]; dose 0.08 uM,0.207 log2 fold change
same,Dose.FC.LYZ.S,[1]; dose 0.40 uM,0.142 log2 fold change
same,Dose.FC.LYZ.S,[1]; dose 2.00 uM,0.044 log2 fold change
same,Dose.FC.LYZ.S,[1]; dose 10.00 uM,−0.283 log2 fold change
same,Dose.FC.LYZ.NS,[2]; dose 0.08 uM,0.094 log2 fold change
same,Z.LYZ.NS (standard z score),[2]; dose 0.08 uM,0.820
same,Dose.FC.LYZ.NS,[2]; dose 0.40 uM,0.038 log2 fold change
same,Z.LYZ.NS (standard z score),[2]; dose 0.40 uM,0.327
same,Dose.FC.LYZ.NS,[2]; dose 2.00 uM,0.035 log2 fold change
same,Z.LYZ.NS (standard z score),[2]; dose 2.00 uM,0.304
same,Dose.FC.LYZ.NS,[2]; dose 10.00 uM,−0.233 log2 fold change
same,Z.LYZ.NS (standard z score),[2]; dose 10.00 uM,−2.027
CCN(CC)CCCC(C)Nc1nc(C)cc(Nc2ccc3nc(C)cc(N)c3c2)n1 (centres unmarked) [NSC 23766],Z.CTG,ENR+CD organoids; dose 0.08 uM,0.103
same,Z.CTG,ENR+CD organoids; dose 0.40 uM,0.406
same,Z.CTG,ENR+CD organoids; dose 2.00 uM,0.279
same,Z.CTG,ENR+CD organoids; dose 10.00 uM,0.774
same,Dose.FC.CTG,ENR+CD organoids; [3],0.043 log2 fold change
same,Dose.FC.CTG,ENR+CD organoids; [4],0.170 log2 fold change
same,Dose.FC.CTG,ENR+CD organoids; [5],0.117 log2 fold change
same,Dose.FC.CTG,ENR+CD organoids; [6],0.324 log2 fold change
same,Dose.FC.LYZ.S,[1]; [3],0.080 log2 fold change
same,Dose.FC.LYZ.S,[1]; [4],0.090 log2 fold change
same,Dose.FC.LYZ.S,[1]; [5],0.031 log2 fold change
same,Dose.FC.LYZ.S,[1]; [6],0.030 log2 fold change
same,Z.LYZ.NS,[2]; dose 0.08 uM,0.701
same,Z.LYZ.NS,[2]; dose 0.40 uM,0.380
same,Z.LYZ.NS,[2]; dose 2.00 uM,0.506
same,Z.LYZ.NS,[2]; dose 10.00 uM,0.080
same,Dose.FC.LYZ.NS,[2]; [3],0.081 log2 fold change
same,Dose.FC.LYZ.NS,[2]; [4],0.044 log2 fold change
same,Dose.FC.LYZ.NS,[2]; [5],0.058 log2 fold change
same,Dose.FC.LYZ.NS,[2]; [6],0.009 log2 fold change
